The values that follow are results of earlier work, collected in patent US20100113583A1, “COMBINATION THERAPIES FOR THE TREATMENT OF OBESITY” (priority 2008, published 2010).

For series [1] the following is noted: for weight loss of body weight for drug compared with placebo: literature studies.

For `CC(C)(N)Cc1ccccc1` [phentermine], in series [1] (clinical use as weight loss drug), the “efficacy in clinical use” value was “limited efficacy”. Further, the “weight loss of body weight for drug compared with placebo” value (“weight loss … compared with placebo” for short) in series [1] is “about 5%”. Regarding `CCN[C@@H](C)Cc1cccc(C(F)(F)F)c1` [dexfenfluramine], the “clinically significant side effect / limitation of clinical use” value is “suspected heart valvulopathy”. In addition, the “weight loss … compared with placebo” value in series [1] is listed as “about 5%”.

As to `CCNC(C)Cc1cccc(C(F)(F)F)c1` (stereo not drawn) [fenfluramine], the “clinically significant side effect / limitation of clinical use” value is on record as “caused heart-valve complications”.

For the compound `CC(C)CC(N(C)C)C1(c2ccc(Cl)cc2)CCC1` (stereo not drawn) [sibutramine], the “clinically significant side effect / limitation of clinical use” value is on record as “can cause hypertension”. Further, in series [1], the “weight loss … compared with placebo” value was “about 5%”. For the compound `CCCCCCCCCCC[C@@H](C[C@@H]1OC(=O)[C@H]1CCCCCC)OC(=O)[C@H](CC(C)C)NC=O` [orlistat], the “clinically significant side effect / limitation of clinical use” value is reported as “GI side effects”. Besides, the “weight loss … compared with placebo” value in series [1] is reported as “about 5%”.
